Assay results: paper PMC3435281 (PLoS ONE, 2012)

Assays:
[1] = biological target: T1, murine AHR^d (Mus musculus, UniProt P30561, A375V); assay: EROD activity in AHR^d-15 cells (rat hepatoma BP8 stably transfected with AHR^d)
T1 sequence (P30561 10-848 A375V): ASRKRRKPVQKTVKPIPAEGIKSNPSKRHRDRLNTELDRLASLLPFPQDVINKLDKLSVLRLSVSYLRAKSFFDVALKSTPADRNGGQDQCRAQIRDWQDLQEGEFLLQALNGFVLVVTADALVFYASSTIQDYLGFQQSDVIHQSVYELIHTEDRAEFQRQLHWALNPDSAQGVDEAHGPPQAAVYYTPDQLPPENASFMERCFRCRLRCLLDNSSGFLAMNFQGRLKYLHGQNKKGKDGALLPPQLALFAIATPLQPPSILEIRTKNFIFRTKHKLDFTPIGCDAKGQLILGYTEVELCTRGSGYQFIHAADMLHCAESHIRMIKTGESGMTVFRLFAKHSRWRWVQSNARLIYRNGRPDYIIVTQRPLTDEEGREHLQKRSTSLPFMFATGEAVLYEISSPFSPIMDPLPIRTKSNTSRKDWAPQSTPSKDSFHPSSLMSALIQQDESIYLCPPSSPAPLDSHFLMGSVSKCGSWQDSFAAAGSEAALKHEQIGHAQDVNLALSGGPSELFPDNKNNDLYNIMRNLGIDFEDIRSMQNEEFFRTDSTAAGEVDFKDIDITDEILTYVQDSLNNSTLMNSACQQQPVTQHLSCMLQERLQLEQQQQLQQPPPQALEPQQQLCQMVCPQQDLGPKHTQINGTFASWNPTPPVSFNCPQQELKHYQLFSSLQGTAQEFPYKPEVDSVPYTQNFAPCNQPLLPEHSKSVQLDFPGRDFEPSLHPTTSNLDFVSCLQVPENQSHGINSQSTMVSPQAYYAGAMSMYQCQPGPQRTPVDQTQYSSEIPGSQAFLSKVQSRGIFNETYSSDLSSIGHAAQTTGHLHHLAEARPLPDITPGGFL
Description: The 100 “hit compounds” from the primary screen were subsequently screened for their capacity to activate the low-affinity murine AHR^d receptor isoform using the activity of the endogenous Cyp1a1 gene as a readout. To this end, we established a hepatoma cell line that expresses the AHR^d receptor isoform derived from the DBA/2J mouse. An AHR^d-expressing cell line was generated by stably transfecting the AHR^d cDNA into the rat hepatoma AHR-deficient cell line, BP8 [15]. After stable selection with G418, a subclone (AHR^d-15) was analyzed for receptor expression and function. […] To confirm that the AHR^d-15 clone expressed a functional low affinity AHR^d isoform, we examined the receptor-mediated response to the prototype agonists, TCDD and β-naphthoflavone (BNF).
To test the ability of the 100 AHR inducers to activate the AHR^d-15 cells, they were treated with each of the compounds at the dose of 1 µM, for 36 hours in 96-well plates.
(§1) Figure 3 In Vitro dose response curves. A. Rat hepatoma cell lines bearing the murine AHR^d (AHR^d-15) or the rat AHR^b (5L) were incubated with increasing doses of TCDD in 96-well plates. After 40 hours, EROD activity was performed from whole cell lysate. (n = 3). […] (n = 3). C. Same assay as in A, with increasing doses of BNF. (n = 2). […] Following 48 hours, hepatic microsomal proteins were isolated and used for the assessment of EROD activity. Animals were treated in groups of 4. Error bars: S.D.
The open reading frame of the AHR^d gene (PL2047) was amplified by PCR using oligos OL5127 (5′-[…]-3′) and OL5128 (5′-[…]-3′). The product was ligated into the pTARGET™ mammalian expression vector (Promega, Madison, WI). The resulting plasmid was transfected into the AHR-deficient cell line, BP8 [15], using Effectene transfection reagent (Qiagen Inc., Valencia, CA). Stable integrants were selected with 6 mg/ml of G418 for 2 weeks, beginning at 48-hours post-transfection. Clones derived from single cells were screened for their response to nanomolar doses of dioxin or micromolar doses of BNF, as measured by ethoxyresorufin O-deethylase (EROD) activity. […] The validated cell line used in these studies was designated line AHR^d-15.
(§2) High-throughput analysis of EROD activity was assayed by adapting a protocol that was described elsewhere, [63]. Briefly, cells were seeded into 96-well plates at ∼ 60% density and treated with the test compounds for 36 hours. The cells were washed with PBS and lysed with 30 µL water and a cycle of freeze-thaw. To each well, 150 µL of 50 mM Hepes buffer containing 26.7 µM dicumarol and 13.3 µM ethoxyresorufin were added. The samples were incubated at 30°C for 20 minutes, and 50 µL of 0.5 mM β-NADPH were added to initiate the reaction. Fluorescence of the resorufin product was detected using the 544 nm excitation and 590 nm emission wavelength filter set.

[2] = test system: DBA/2J mice (AHR^d); assay: In vivo hepatic microsomal EROD activity, DBA/2J; set-up: species or system mouse; conditions: oral 120 mg/kg, 48 hours
Method: (§3) We utilized the wild type rat hepatoma cell line, 5L, which harbors the high affinity AHR isoform, and our newly created AHR^d-15 cell line. […] Groups of control mice were given corn oil alone or BNF at the concentration of 120 mg/kg.
as §1
Hepatic microsomes were prepared by homogenizing 0.5 g of liver tissue in 5 mL of MENG buffer (25 mM buffer sodium morpholinopropane sulfonate buffer (pH 7.5) containing 0.025% (w/v) NaN3, 1 mM EGTA and 10% (v/v) glycerol). The homogenate was subjected to centrifugation at 10,000×g for 20 minutes, followed by centrifugation of the supernatant for 1 hour at 100,000×g and 4°C. The pellet was dissolved in 15 mM Tris-HCl buffer containing 250 mM sucrose (pH 8.0) and aliquots were stored at −80°C. Protein concentration was determined using the Bicinchoninic Acid Protein Assay Reagent (Pierce Biotechnology, Rockford, IL). […]

[3] = biological target: T2, rat AHR^b (5L) (Rattus norvegicus, UniProt P41738); assay: EROD activity in rat hepatoma 5L cells; assay type: cell-based; conditions: 5L cell line, 40 hours
T2 construct: endogenous in cells; host or cells: rat hepatoma 5L cells
Method: as §3, §1, §2

[4] = test system: AHR (101L-hepatoma cells); assay: Antagonism of DRE-luciferase activation by CH223191; assay type: cell-based, human
[5] = biological target: AHR^b isoform (C57BL/6J hepatic cytosol) (Mus musculus, UniProt P30561); conditions: read-out: IC50, competitive binding; C57BL/6J cytosol, 1 nM radioligand 125IBr2N3DpD
Sequence of AHR^b isoform (C57BL/6J hepatic cytosol) (P30561 10-805): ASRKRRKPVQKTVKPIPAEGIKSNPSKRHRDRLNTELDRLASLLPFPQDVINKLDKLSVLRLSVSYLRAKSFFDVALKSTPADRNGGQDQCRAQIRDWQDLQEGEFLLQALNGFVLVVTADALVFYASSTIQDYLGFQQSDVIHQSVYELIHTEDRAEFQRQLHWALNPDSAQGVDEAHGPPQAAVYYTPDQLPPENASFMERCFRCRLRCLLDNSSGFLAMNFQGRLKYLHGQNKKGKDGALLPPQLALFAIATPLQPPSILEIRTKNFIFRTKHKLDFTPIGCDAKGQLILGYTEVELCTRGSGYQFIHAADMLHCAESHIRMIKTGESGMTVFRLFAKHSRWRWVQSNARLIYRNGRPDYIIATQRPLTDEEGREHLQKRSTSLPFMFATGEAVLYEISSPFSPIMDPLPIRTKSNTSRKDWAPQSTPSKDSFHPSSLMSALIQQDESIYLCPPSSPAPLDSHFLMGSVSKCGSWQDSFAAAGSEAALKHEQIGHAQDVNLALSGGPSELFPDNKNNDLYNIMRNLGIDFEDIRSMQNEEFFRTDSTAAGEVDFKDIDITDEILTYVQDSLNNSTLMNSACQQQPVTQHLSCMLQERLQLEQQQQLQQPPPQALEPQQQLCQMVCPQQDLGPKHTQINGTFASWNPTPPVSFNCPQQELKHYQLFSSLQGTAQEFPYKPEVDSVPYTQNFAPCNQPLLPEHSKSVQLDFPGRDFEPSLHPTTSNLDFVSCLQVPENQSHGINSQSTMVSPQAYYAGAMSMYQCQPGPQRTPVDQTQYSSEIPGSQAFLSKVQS

T2 sequence (P41738 10-853): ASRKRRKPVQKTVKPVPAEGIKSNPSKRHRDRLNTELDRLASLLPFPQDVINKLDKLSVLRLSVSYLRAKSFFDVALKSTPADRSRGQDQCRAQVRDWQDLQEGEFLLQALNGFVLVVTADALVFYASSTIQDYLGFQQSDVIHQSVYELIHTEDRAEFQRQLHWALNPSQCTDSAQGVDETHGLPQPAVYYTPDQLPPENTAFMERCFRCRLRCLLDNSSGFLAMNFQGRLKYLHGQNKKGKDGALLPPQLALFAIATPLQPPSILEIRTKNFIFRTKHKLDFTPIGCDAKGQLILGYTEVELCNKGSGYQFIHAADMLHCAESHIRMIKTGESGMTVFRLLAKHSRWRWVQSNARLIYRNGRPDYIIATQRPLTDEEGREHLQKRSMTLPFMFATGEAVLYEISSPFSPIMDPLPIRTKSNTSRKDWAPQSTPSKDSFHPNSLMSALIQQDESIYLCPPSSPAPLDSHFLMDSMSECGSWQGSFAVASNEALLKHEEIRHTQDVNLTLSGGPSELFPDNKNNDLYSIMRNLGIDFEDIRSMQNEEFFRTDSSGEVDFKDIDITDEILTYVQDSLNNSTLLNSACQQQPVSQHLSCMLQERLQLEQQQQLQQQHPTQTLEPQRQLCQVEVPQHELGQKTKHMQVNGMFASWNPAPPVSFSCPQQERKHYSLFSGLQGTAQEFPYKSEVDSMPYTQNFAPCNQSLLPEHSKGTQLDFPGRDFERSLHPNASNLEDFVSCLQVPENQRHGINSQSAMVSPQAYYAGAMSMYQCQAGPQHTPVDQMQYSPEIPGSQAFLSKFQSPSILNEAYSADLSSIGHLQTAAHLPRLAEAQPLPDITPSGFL

SMILES: O=c1cc(-c2ccccc2)oc2ccc3ccccc3c12 [BNF, β-naphthoflavone]
- EROD response ([1]; AHR^d-15 cell line, 40 hours): no response
- AHR-mediated response (EROD activity) ([1]; AHR^d-15 cells, doses as high as 10 µM, 36 hours): inactive
- hepatic EROD activity [2]: dramatically decreased in vivo activity
- EROD response [3]: strong response

SMILES: Cc1ccccc1N=Nc1ccc(NC(=O)c2ccnn2C)c(C)c1 [CH223191]
- inhibition of SU5416-induced DRE activation ([4]; antagonist 10 µM, titration of SU5416, 4 hours): only a small amount of inhibition
- inhibition of TCDD-induced DRE activation ([4]; titration of antagonist with 1 nM TCDD, 4 hours): inhibited
- inhibition of SU5416-induced DRE activation ([4]; titration of antagonist with 100 nM SU5416, 4 hours): minimal inhibition

SMILES: c1ccc2cc3c(ccc4ccccc43)cc2c1 [1,2-Benzanthracene]
- IC50 [5]: 13.7 nM
